A compilation of properties of binary mixtures (doi:10.1016/j.molliq.2015.11.008)

Experiment: xn = mol fraction of the nth substance listed
Conditions: 298.15 K, 101 kPa

CC(=O)[O-].CC[NH2+]CC + O
Conditions | electrical conductivity [S/m] | viscosity [mPa·s]
x1 = 0.0079 | 1.4 | –
x1 = 0.0285 | 2.35 | –
x1 = 0.0365 | 2.46 | –
x1 = 0.0444 | 2.49 | –
x1 = 0.0602 | 2.47 | –
x1 = 0.0777 | 2.33 | –
x1 = 0.098 | – | 5.81
x1 = 0.298 | – | 26.8
x1 = 0.2995 | 0.965 | –
x1 = 0.3994 | 0.669 | –
x1 = 0.403 | – | 40.7
x1 = 0.4992 | 0.525 | –
x1 = 0.501 | – | 48.1
x1 = 0.597 | – | 53.1
x1 = 0.599 | 0.407 | –
x1 = 0.662 | – | 54.6
x1 = 0.794 | 0.308 | –
x1 = 0.805 | – | 55.7
x1 = 0.8986 | 0.282 | –
x2 = 0.0048 | 0.262 | –
